Data taken from patent US20250082614A1, “METHODS OF USING RAD51 INHIBITORS FOR TREATMENT OF PANCREATIC CANCER” (Cyteir Therapeutics, Inc., priority 2019, published 2025).

Key:
[1] = tested on: Daudi cell line (AID positive); test: Cell killing assay in the Daudi cell line (AID positive), Cell-Titer Glo; type: cell-based; settings: Homo sapiens, 168 h; Daudi cells (AID positive), cell death on Day 7
Experimental: Primary screening was a phenotypic screen that utilized the synthetic lethal interaction between AID and RAD51 to identify compounds that were both potent and on target. AID expressing cells are dependent upon RAD51 for survival; inhibiting RAD51 in AID positive cells results in a cytotoxic effect.
The first step was to set up a cell killing assay in the Daudi cell line (AID positive). A 96 well u-bottom plate was prepared by writing the experiment number, plate number, date and initials in the top right corner of the plate lid. With a sterile 300 ml reservoir, and 25 ml serological pipette, evaporation buffer media was pipetted into reservoir in 25 ml increments. Using the liquid handler, 150 ul of evaporation buffer media was pipetted from reservoir into rows A and H, and Columns 1 and 12 of the 96 well u-bottom plate. Cell cultures were counted to obtain the density of cells per ml, and the culture viability. The cell density information was used to obtain 1,000,000 cells from culture using a 5 mL serological pipette into an epi tube. The cell density information from the culture was used to calculate the number of cells and volume of media needed for the assay to seed 1250 cells in 130 ul of media per available culture well in the 96 well u-bottom plate. Rows B through F were used for cells (50 wells in total), with row G left for an empty media control. The calculation was overestimated by 10 mL to account for the dead volume in the 300 ml reservoir. Once the media volume was calculated, the appropriate volume of media was pipetted in 25 mL increments into the 250 mL bottle using a 25 mL serological pipette. The 250 ml bottle was capped tightly, and placed into a 37° C. water bath for 2 minutes. While the culture media was warming, 10 mL of fresh media was pipetted from the 500 mL culture media bottle into a sterile 25 mL reservoir. Using the Eppendorf multichannel pipette, 130 ul of media was pipetted from the 25 mL reservoir into row G of the 96 well u-bottom plate. […]

[2] = Human liver microsome stability; type: in vitro ADME; settings: human liver microsomes
Experimental: The stability of the claimed compounds was determined in the presences of human liver microsomes. The compounds were incubated with the microsomes at 37° C. for 45 minutes. Samples were analyzed using LC-MS/MS. Data analysis included half-life, clearance rate, and the percentage of hepatic blood flow […] for each of the compounds in the different species.

[3] = Pharmacokinetic (PK) study, plasma by LC-MS; type: in vivo, rat; settings: po @ 80 mg/kg
Experimental: PK studies in mice were used to determine the fate of the compounds in a whole organism. Rats were treated with the compounds either orally of via IV at the indicated doses and followed for up to 24 hours. Plasma samples were taken at different time points and analyzed by LC-MS.

[4] = Bi-directional Caco-2 permeability; type: in vitro ADME; settings: human; for Papp A→B at 90 min / Papp B→A at 90 min: Caco-2, 37° C., up to 90 minutes; for Papp A→B at 90 min: apical to basolateral, read-out: AB Papp (cm/sec × 10^6); for Papp B→A at 90 min: basolateral to apical, read-out: BA Papp (cm/sec × 10^6); for efflux ratio at 90 min: Caco-2 efflux ratio, read-out: BA/AB Ratio
Experimental: Bi-directional Caco-2 permeability was assayed. Caco-2 cells were seeded onto permeable polycarbonate supports and allowed to differentiate for about 3 weeks prior to being used in the assays. The cells were then exposed to the compounds from either the apical or basolateral sides and incubated at 37° C. for up to 90 minutes under light agitation. Compound transport was then measured using LC/MS/MS analysis at 30, 60, and 90 minutes.

[5] = tested on: ARPE19/HPV16 (HPV Immortalized RPE); test: Cell line screen, potency assay; type: cell-based; settings: ARPE-19, AICDA expression Negative
Experimental: Percent cell death and EC50 values were calculated by comparing the cell viability of the compound treated wells to the non-treated wells. Normalized RLU values were obtained by subtracting the media well values from each of the wells in the same column, and then dividing that value by the DMSO treated cells values. The percent kill was then calculated by subtracting the normalized RLU value from 1 and multiplying by 100. The average normalized percent kill value and standard error of the mean was then calculated. The kill values were then inputted into Prism with the corresponding standard errors. In Prism a non-linear regression line was plotted with the data points using a semi-log scale, and the EC50 value was calculated.
The activity of the claimed compounds was measured in a variety of cell lines with different expression levels of activation induced cytidine deaminase (AICDA). The potency assay was repeated in all of the listed cell lines and the EC50 values recorded.

| % QH (percentage of hepatic blood flow) [2] [%] | F (%) @ 5 mg/kg ([3]; Rat Female) [%] | F (%) @ 5 mg/kg ([3]; Rat Male) [%] | Papp A→B at 90 min [4] [×10⁻⁶ cm/s] | Papp B→A at 90 min [4] [×10⁻⁶ cm/s] | efflux ratio at 90 min [4] | Structure (SMILES) | EC50 [1] [nM] | EC50 [5] [nM] |
| --- | --- | --- | --- | --- | --- | --- | --- | --- |
| – | – | – | – | – | – | CC(C)OC(=O)Nc1ccc(-c2cnc(C3CCC(NC(=O)OC[C@@H]4CCCN4C)CC3)s2)c(S(=O)(=O)NC(C)(C)C)c1 (stereo partly drawn) [Ex. 9, isopropyl (3-(N-(tert-butyl)sulfamoyl)-4-(2-((1S,4r)-4-(((((S)-1-methylpyrrolidin-2-yl)methoxy)carbonyl)amino)cyclohexyl)thiazol-5-yl)phenyl)carbamate] | 100 to 1000 | – |
| 78.8 | 8.39 | 3.69 | 10.9 | 24.1 | 2.2 | CC(C)OC(=O)NC1CCC(c2ncc(-c3ccc(NC(=O)NCc4ccccn4)cc3S(=O)(=O)NC(C)(C)C)s2)CC1 (stereo not shown) [Ex. 29, isopropyl ((1r,4r)-4-(5-(2-(N-(tert-butyl)sulfamoyl)-4-(3-(pyridin-2-ylmethyl)ureido)phenyl)thiazol-2-yl)cyclohexyl)carbamate] | – | – |
| 77.3 | 2.77 | 1.49 | 12.8 | 13.6 | 1.1 | CC(C)OC(=O)NC1CCC(c2ncc(-c3ccc(NC(=O)NCc4ncccc4F)cc3S(=O)(=O)NC(C)(C)C)s2)CC1 (stereo not shown) [Ex. 31, isopropyl ((1r,4r)-4-(5-(2-(N-(tert-butyl)sulfamoyl)-4-(3-((3-fluoropyridin-2-yl)methyl)ureido)phenyl)thiazol-2-yl)cyclohexyl)carbamate] | – | – |
| – | – | – | 0.4 | 45.2 | 104 | CC(C)OC(=O)NC1CCC(c2ncc(-c3ccc(NC(=O)OC[C@H]4CCCN4C)cc3S(=O)(=O)NC(C)(C)C)s2)CC1 (stereo partly drawn) [Ex. 34, isopropyl ((1R,4r)-4-(5-(2-(N-(tert-butyl)sulfamoyl)-4-(((((R)-1-methylpyrrolidin-2-yl)methoxy)carbonyl)amino)phenyl)thiazol-2-yl)cyclohexyl)carbamate] | 100 to 1000 | – |
| – | – | – | 0.4 | 41 | 99.1 | CC(C)OC(=O)NC1CCC(c2ncc(-c3ccc(NC(=O)OC[C@@H]4CCCN4C)cc3S(=O)(=O)NC(C)(C)C)s2)CC1 (stereo partly drawn) [Ex. 35, isopropyl ((1S,4r)-4-(5-(2-(N-(tert-butyl)sulfamoyl)-4-(((((S)-1-methylpyrrolidin-2-yl)methoxy)carbonyl)amino)phenyl)thiazol-2-yl)cyclohexyl)carbamate] | 100 to 1000 | – |
| 49.6 | 3.31 | 2.55 | – | – | – | CC(C)OC(=O)N[C@H]1CC[C@H](c2ncc(-c3ccc(NC(=O)NCc4ccccc4)cc3S(=O)(=O)NC(C)(C)C)s2)CC1 [Ex. 66A, trans-isopropyl N-[4-[5-[4-(benzylcarbamoylamino)-2-(tert-butylsulfamoyl)phenyl]thiazol-2-yl]cyclohexyl]carbamate] | – | – |

| Structure (SMILES) | % QH (percentage of hepatic blood flow) [2] [%] | F (%) @ 5 mg/kg ([3]; Rat Female) [%] | F (%) @ 5 mg/kg ([3]; Rat Male) [%] | Papp A→B at 90 min [4] [×10⁻⁶ cm/s] | Papp B→A at 90 min [4] [×10⁻⁶ cm/s] | efflux ratio at 90 min [4] | EC50 [1] [nM] | EC50 [5] [nM] |
| --- | --- | --- | --- | --- | --- | --- | --- | --- |
| CC(C)OC(=O)Nc1ccc(-c2cnc([C@H]3CC[C@H](NC(=O)OC(C)C)CC3)s2)c(S(=O)(=O)NC(C)(C)C)c1 [Ex. 67A, trans-isopropyl N-[3-(tert-butylsulfamoyl)-4-[2-[4-(isopropoxycarbonylamino)cyclohexyl]thiazol-5-yl]phenyl]carbamate] | <20.3 | 86.5 | 46.9 | – | – | – | – | > 10000 |
